Consider one molecule from doi:10.1101/2020.07.24.219071v1 (biorxiv, 2020).

Holding throughout (experiment): MicroScale Thermophoresis
Test [1] has as its target T1, Menin (Homo sapiens, UniProt O00255).
T1 sequence (O00255 1-610): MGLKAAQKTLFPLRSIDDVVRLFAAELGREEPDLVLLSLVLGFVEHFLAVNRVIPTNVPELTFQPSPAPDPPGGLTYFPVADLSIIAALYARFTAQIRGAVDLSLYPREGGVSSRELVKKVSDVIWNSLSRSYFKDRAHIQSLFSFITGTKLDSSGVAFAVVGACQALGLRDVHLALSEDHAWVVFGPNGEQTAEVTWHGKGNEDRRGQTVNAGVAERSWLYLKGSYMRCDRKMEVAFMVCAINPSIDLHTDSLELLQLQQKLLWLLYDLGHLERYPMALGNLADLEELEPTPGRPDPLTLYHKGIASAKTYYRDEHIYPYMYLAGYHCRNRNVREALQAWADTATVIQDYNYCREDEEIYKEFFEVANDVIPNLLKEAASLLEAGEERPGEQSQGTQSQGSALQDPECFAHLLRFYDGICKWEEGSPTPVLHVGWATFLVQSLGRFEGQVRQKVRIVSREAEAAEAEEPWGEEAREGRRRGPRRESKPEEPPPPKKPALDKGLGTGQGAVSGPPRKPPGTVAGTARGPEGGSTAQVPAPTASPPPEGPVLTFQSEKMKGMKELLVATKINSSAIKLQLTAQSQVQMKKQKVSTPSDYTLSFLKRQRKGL
The format is binding.

The target in test [2] is Hematopoietic prostaglandin D synthase (HPGDS) (Homo sapiens, UniProt O60760). Type of test: binding.
Chain of Hematopoietic prostaglandin D synthase (HPGDS) (O60760 whole entry): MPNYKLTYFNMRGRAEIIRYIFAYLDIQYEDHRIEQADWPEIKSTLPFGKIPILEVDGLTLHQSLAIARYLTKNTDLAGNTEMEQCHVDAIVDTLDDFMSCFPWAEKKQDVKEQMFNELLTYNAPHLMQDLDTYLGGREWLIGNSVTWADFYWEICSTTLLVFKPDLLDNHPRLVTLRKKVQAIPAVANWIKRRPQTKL
For test [3], the target named is Nicotinamide/nicotinic acid mononucleotide adenylyltransferase 1 (NMNAT1) (Homo sapiens, UniProt Q9HAN9). Type of test: binding.
Chain of Nicotinamide/nicotinic acid mononucleotide adenylyltransferase 1 (NMNAT1) (Q9HAN9 whole entry): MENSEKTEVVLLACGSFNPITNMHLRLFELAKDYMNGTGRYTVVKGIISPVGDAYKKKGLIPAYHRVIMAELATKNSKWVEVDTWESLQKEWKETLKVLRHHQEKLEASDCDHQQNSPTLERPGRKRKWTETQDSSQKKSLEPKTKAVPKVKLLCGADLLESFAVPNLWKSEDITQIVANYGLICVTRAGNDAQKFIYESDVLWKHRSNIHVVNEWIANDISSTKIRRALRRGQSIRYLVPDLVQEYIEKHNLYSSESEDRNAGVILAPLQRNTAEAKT
Test [4] deals with T2, Fatty acid-binding protein 4 (FABP4) (Homo sapiens, UniProt P15090).
T2 sequence (P15090 2-132): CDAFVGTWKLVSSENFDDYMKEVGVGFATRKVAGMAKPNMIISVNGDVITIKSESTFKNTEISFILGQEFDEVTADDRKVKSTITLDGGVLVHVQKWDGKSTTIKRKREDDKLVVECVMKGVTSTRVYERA

Test [5] addresses Glutamate receptor 2 (GRIA2) (Homo sapiens, UniProt P42262). Type of test: binding.

The structures appear in SMILES notation. A value given as a limit tells only on which side of the number the result lay.

Chain of Glutamate receptor 2 (GRIA2) (P42262 25-543 limits assumed): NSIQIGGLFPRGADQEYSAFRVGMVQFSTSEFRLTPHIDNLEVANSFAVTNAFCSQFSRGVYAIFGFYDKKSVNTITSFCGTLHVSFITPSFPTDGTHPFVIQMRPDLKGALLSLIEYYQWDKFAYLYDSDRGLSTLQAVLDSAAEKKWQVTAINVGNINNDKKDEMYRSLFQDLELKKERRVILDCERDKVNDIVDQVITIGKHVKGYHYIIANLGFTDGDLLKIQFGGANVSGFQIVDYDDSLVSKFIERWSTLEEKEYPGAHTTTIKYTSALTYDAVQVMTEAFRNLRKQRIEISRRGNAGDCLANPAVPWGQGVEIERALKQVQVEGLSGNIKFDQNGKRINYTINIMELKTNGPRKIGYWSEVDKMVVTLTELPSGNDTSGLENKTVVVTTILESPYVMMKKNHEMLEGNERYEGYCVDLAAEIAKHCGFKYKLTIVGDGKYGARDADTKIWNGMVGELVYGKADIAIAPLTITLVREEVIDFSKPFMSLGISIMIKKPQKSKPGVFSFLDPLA

With `C[S+]([O-])c1ccc(-c2nc(-c3ccncc3)c(-c3ccc(F)cc3)[nH]2)cc1` (centres unmarked) [SB203580], the Kd is above 500 µM in test [1]; 30.9 ± 4.54 µM in test [2]; above 500 µM in test [3]; above 500 µM in test [4]; above 500 µM in test [5].

Usually Kd stands for the constant that tells how readily two partners part at equilibrium. A lower Kd goes with higher affinity.
